We go through 20 compounds from patent publication US9708265B2, “Urethanes, ureas, amidines and related inhibitors of factor Xa” (priority 2010, dated 2017).

By Ki is commonly meant a measure of affinity in units of concentration, obtained from inhibition or displacement.

One assay concerns the target factor Xa (Homo sapiens, UniProt P00742). Description: Activity towards factor Xa in vitro (initial rate of decomposition of substrate S-2222). As to conditions: substrate S-2222 164 μM, room temperature, pH 7.5, 10 min preincubation; Ki calculated from IC50. It counts as biochemical. As to the method: For some compounds depicted in the above examples, there has been measured a constant of activity of these substances towards the factor Xa in vitro—Ki. The measurements were carried out kinetically, in terms of the initial rate of decomposition of the substrate S-2222 by the protein. The measurements were carried out at room temperature in 2 ml rectangular quartz cuvettes. In the reaction there was used a solution: 50 mM Tris-HCl, 150 mM NaCl, 2.5 mM CaCl2, and 0.1% PEG 6000, pH 7.5, factor Xa […], S-2222 164 μM. The standard least-squares method was used for determining Km for certain concentrations of the protein and substrate. Before the reaction, the protein and the active agent in the solution were under thermostatic control for 10 min; then the substrate was added and the reaction was initiated. The reaction rate was measured with a Specord M80 instrument from a change in the light absorption at a wavelength of 405 nm. The IC50 values were determined from the experimentally obtained dependence of the initial rates on the concentration of the inhibitor (active agent). The Ki values were calculated from the concentrations of the protein, substrate, and inhibitors; the IC50 values, by the method described in (1) Jordan, S. P.; Waxman, L.; Smith, D. E.; Vlasik, G. P. Biochemistry 1990, 29, 11095 and (2) Morrison, J. F. Biochim Biophys. Acta 1969, 185, 269.

In the next assay the test system is human blood plasma. Description: Prothrombin time in human blood plasma in vitro (Diahem P kit). As to conditions: 3 min incubation, average of 3 measurements. How it is done:
For some compounds depicted in the above examples, there has been measured the concentration of these compounds in human blood plasma, at which the prothrombin time of plasma is twice as much—2PT. The measurements were carried out with the aid of a Diahem P kit (NPO Renam, www.renam.ru) by a method described in the instruction for users of the kit. The active compound was dissolved in a blood plasma provided in the kit and was incubated for 3 min. The measurements were carried out with a Sysmex CA 50 instrument. For each concentration, there were taken 3 measurements and the result was averaged.

Sequence of factor Xa (P00742 235-488 limits assumed): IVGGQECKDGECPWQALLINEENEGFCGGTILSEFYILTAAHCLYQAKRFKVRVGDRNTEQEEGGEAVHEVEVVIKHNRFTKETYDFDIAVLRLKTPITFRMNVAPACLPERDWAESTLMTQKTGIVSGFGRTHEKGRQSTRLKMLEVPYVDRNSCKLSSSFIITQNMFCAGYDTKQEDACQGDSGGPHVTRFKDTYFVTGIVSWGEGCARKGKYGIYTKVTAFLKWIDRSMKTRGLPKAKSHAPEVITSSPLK
Sequence of factor Xa (P00742 41-179 partner limits assumed): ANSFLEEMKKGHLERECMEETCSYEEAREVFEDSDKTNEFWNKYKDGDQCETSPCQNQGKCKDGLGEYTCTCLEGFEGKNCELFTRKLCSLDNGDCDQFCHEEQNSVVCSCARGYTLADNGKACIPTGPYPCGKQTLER

`CC(=N)N(C)c1ccc(C(=O)Nc2ccccc2C(=O)Nc2ccc(Cl)cn2)cc1` [Example 1, N-(5-chloropyridine-2-yl)-2-[(4-ethaneimidoyl-methylaminophenylcarbonyl)amino]benzamide]: on factor Xa, the inhibitory constant (Ki) is 2 nM. For the compound `CC(=N)N(C)c1ccc(C(=O)Nc2ccc(C)cc2C(=O)Nc2ccc(Cl)cn2)cc1` [Example 2, N-(5-chloropyridine-2-yl)-2-[(4-ethaneimidoyl-methyl-aminophenylcarbonyl)amino]5-methylbenzamide], at factor Xa, the Ki is 0.5 nM. As to `CC(=N)N(C)c1ccc(C(=O)Nc2ccc(Cl)cc2C(=O)Nc2ccc(Cl)cn2)cc1` [Example 3, N-(5-chloropyridine-2-yl)-2-[(4-ethaneimidoyl-methyl-aminophenylcarbonyl)amino]-5-chlorobenzamide], the Ki on factor Xa is 0.3 nM.

For the compound `COc1ccc(NC(=O)c2ccc(N(C)C(C)=N)cc2)c(C(=O)Nc2ccc(Cl)cn2)c1` [Example 4, N-(5-chloropyridine-2-yl)-2-[(4-ethaneimidoyl-methyl-aminophenylcarbonyl)amino]5-methoxybenzamide], at factor Xa, the Ki was 1 nM. With `CC(=N)N(C)c1ccc(C(=O)Nc2ccccc2C(=O)Nc2ccc(Cl)cn2)c(OCCCN)c1` [Example 5, N-(5-chloropyridine-2-yl)-2-[4-(ethaneimidoylmethylamino)-2-(3-aminopropoxy)phenylcarbonyl-amino]benzamide], at factor Xa, the Ki is 0.5 nM. Besides, the “2 × PT (concentration at which the prothrombin time of plasma is twice as much)” value (from here on “2 × PT”) in the assay with human blood plasma is 0.2 µM. For `CC(=N)N(C)c1ccc(C(=O)Nc2ccc(C)cc2C(=O)Nc2ccc(Cl)cn2)c(OCCCN)c1` [Example 6], at factor Xa, the Ki was 0.5 nM. Further, the “2 × PT” value in the assay with human blood plasma was found to be 0.2 µM.

Take `CC(=N)N(C)c1ccc(C(=O)Nc2ccc(Cl)cc2C(=O)Nc2ccc(Cl)cn2)c(OCCCN)c1` [Example 7, N-(5-chloropyridine-2-yl)-2-[4-(ethaneimidoylmethylamino)-2-(3-aminopropoxy)phenylcarbonylamino]-5-chlorobenzamide]: on factor Xa, the Ki is 0.5 nM. For the compound `COc1ccc(NC(=O)c2ccc(N(C)C(C)=N)cc2OCCCN)c(C(=O)Nc2ccc(Cl)cn2)c1` [Example 8, N-(5-chloropyridine-2-yl)2-[4(ethaneimidoylmethylamino)-2-(3-aminopropoxy)phenylcarbonyl-amino]-5-methoxybenzamide], the Ki at factor Xa is 0.5 nM. In addition, the “2 × PT” value in the assay on human blood plasma is 0.2 µM. The like results for `CC(=N)N(C)c1cc(F)c(C(=O)Nc2ccc(C)cc2C(=O)Nc2ccc(Cl)cn2)c(OCCCN)c1` [Example 9, N-(5-chloropyridine-2-yl)-2-[4-(ethaneimidoylmethylamino)-2-(3-aminopropoxy)-6-fluorophenylcarbonylamino]-5-methylbenzamide] were, in that order, 0.4 nM and 0.15 µM. Regarding `CC(=N)N(C)c1cc(F)c(C(=O)Nc2ccc(Cl)cc2C(=O)Nc2ccc(Cl)cn2)c(OCCCN)c1` [Example 10, N-(5-chloropyridine-2-yl)-2-[2-(3-aminopropoxy)-6-fluoro-4(ethaneamidoylmethylamino)phenylcarbonylamino]-5-chlorobenzamide], at factor Xa, the Ki is 0.4 nM. For the same compound, the “2 × PT” value with human blood plasma turned out to be 0.15 µM.

`CC(=N)N(C)c1ccc(C(=O)Nc2ccc(C)cc2C(=O)Nc2ccc(Cl)cn2)c(F)c1` [Example 11]: the Ki at factor Xa is 0.8 nM. For the same compound, the “2 × PT” value with human blood plasma was 0.09 µM. Take `CC(=N)N(C)c1ccc(C(=O)Nc2ccc(Cl)cc2C(=O)Nc2ccc(Cl)cn2)c(F)c1` [Example 12]: the Ki at factor Xa is 1 nM. Moreover, the “2 × PT” value in the assay with human blood plasma amounted to 0.09 µM. With `CC(=N)N(C)c1ccc(C(=O)Nc2ccc(C)cc2C(=O)Nc2ccc(Cl)cn2)c(OCCCNC(C)=O)c1` [Example 13, N-(5-chloropyridine-2-yl)-2-[4-(ethaneimidoylmethylamino)-2-(3-(acetylamino)propoxy)phenylcarbonylamino]-5-methylbenzamide], at factor Xa, the Ki was 0.5 nM. Besides, in the assay on human blood plasma, the “2 × PT” value is 1.5 µM.

On to `COC(=N)N(C)c1ccc(C(=O)Nc2ccc(C)cc2C(=O)Nc2ccc(Cl)cn2)cc1` [Example 14, N-(5-chloropyridine-2-yl)-2-[(4-(imino(methoxy)methyl)(methyl)aminophenylcarbonyl)amino]5-methylbenzamide], for which the Ki at factor Xa is 2 nM. `CNC(=N)N(C)c1ccc(C(=O)Nc2ccc(C)cc2C(=O)Nc2ccc(Cl)cn2)cc1` [Example 15]: the Ki on factor Xa was 0.5 nM. Besides, the “2 × PT” value in the assay with human blood plasma came out at 1.5 µM. The like results for `CNC(=N)N(C)c1ccc(C(=O)Nc2ccc(Cl)cc2C(=O)Nc2ccc(Cl)cn2)cc1` [Example 16] were, in that order, 0.5 nM and 1.5 µM.

Consider `CNC(=O)N(C)c1ccc(C(=O)Nc2ccc(Cl)cc2C(=O)Nc2ccc(Cl)cn2)cc1` [Example 17, N-(5-chloropyridine-2-yl)-2-[(4-methyl(methylcarbamoyl)aminophenylcarbonyl)amino]-5-chlorobenzamide], for which the Ki at factor Xa was 0.15 nM.

Turning to `CNC(=O)N(C)c1ccc(C(=O)Nc2ccc(C)cc2C(=O)Nc2ccc(Cl)cn2)cc1` [Example 18], the Ki on factor Xa is 0.15 nM. Also, the “2 × PT” value with human blood plasma came out at 3.0 µM. Regarding `CNC(=O)N(C)c1ccc(C(=O)Nc2ccc(C)cc2C(=O)Nc2ccc(Cl)cn2)c(OCCCN)c1` [Example 19], the Ki on factor Xa was 0.2 nM. Also, in the assay on human blood plasma, the “2 × PT” value stood at 1.0 µM. On to `CNC(=O)N(C)c1ccc(C(=O)Nc2ccc(Cl)cc2C(=O)Nc2ccc(Cl)cn2)c(OCCCN)c1` [Example 20], for which the Ki at factor Xa was 0.2 nM. Also, in the assay on human blood plasma, the “2 × PT” value is 1.0 µM.
